Source: patent US20050234113A1, “Antioxidant and radical scavenging activity of synthetic analogs of desferrithiocin” (University of Florida Research Foundation, Inc., priority 2002, published 2005)
Values joined by “and” are separate entries in the source; they are usually repeats but may differ in a detail not shown here. Identical values can stand only once. Like-named read-outs stand apart in the source and are kept apart here. Marks after values point to notes of the source that are not given here.

Key:
[1] = Quenching of the ABTS radical cation; settings: Table 5; 6-min reaction, initial OD 1.000
iron [2] = assay: Iron clearance in the non iron-overloaded, bile duct-cannulated rodent model; type: in vivo, Sprague-Dawley rats
Procedure: Briefly, male Sprague-Dawley rats averaging 450 g were housed in Nalgene plastic metabolic cages during the experimental period and given free access to water. The animals were anesthetized using sodium pentobarbital (55 mg/kg) administered intraperitoneally. The bile duct was cannulated using 22-gauge polyethylene tubing. The cannula was inserted into the duct about 1 cm from the duodenum and tied snugly in place. After threading through the shoulder, the cannula was passed from the rat to the swivel inside a metal torque-transmitting tether, which was attached to a rodent jacket around the animal's chest. The cannula was directed from the rat to a Gilson microfraction collector (Middleton, Wis.) by a fluid swivel mounted above the metabolic cage. Bile samples were collected at 3 hour intervals for 24 hours. The urine sample was taken at 24 hours and handling was as previously described. (Bergeron, R. J., et al., J. Med. Chem. 34:2072-2078 (1991).
(§1) The iron chelators were solubilized in 40% Cremophor RH-40/water (v/v) and given orally and subcutaneously to the rats at the doses shown in Table 4. In the primates, DFO was dissolved in sterile H2O at a concentration of 50 or 100 mg/mL and given orally or subcutaneously at a volume of 1 ml/kg. The desferrithiocin analogues were solubilized in 40% Cremophor RH-40/water (v/v) and given orally to the monkeys at the doses shown in Table 4. However, the desferrithiocin analogues were administered subcutaneously as either a suspension in distilled H2O or as their sodium salts in solution as indicated in Table 4.
(§2) Iron clearance studies were carried out both in the non iron-overloaded, bile duct-cannulated rodent model and in the iron-overloaded Cebus apella monkey, and the results are reported as iron clearing efficiency (Table 4). This number is generated by dividing the net iron clearance [total iron excretion (bile or stool plus urine) minus background] by the theoretical iron clearance and multiplying by 100. The theoretical iron clearance is based on a 2:1 metal complex stoichiometry for 4′-(HO)-DADMDFT, a 1:1 stoichiometry for DFO, and a 1:1 stoichiometry for BDU, as shown in the Job's plot (FIG. 5). Data are presented as the mean±the standard error of the mean. The drugs were administered both orally (po) and subcutaneously (sc) to the rodents and primates; the positive control was DFO.

iron [3] = assay: Iron clearance in the iron-overloaded Cebus apella monkey; type: in vivo; settings: 300 μmol/kg sc, as sodium salt
Procedure: The monkeys were iron overloaded with intravenous iron dextran to provide about 500 mg iron per kg body weight. The serum transferrin iron saturation rose to between 70 and 80%. At least twenty half-lives, sixty days, elapsed before any of the animals were used in experiments evaluating iron-chelating agents.
Fecal and urine samples were collected at 24 hour intervals and processed. Briefly, the collections began 4 days prior to the administration of the test drug and continued for an additional 5 days after the drug was given. Iron concentrations were determined by flame atomic absorption spectroscopy.
as §1, §2

iron [4] = settings: cited from earlier work

Structure (SMILES) | Slope × 10^3 OD units/μM (ABTS radical cation quenching) [1] | % bile (of iron excreted), rodents (iron [2]; 300 μmol/kg po) [%] | % urine (of iron excreted), rodents (iron [2]; 300 μmol/kg po) [%] | efficiency in rodents (%) (iron [2]; 300 μmol/kg po) | % bile (of iron excreted), rodents (iron [2]; 300 μmol/kg sc) [%] | % urine (of iron excreted), rodents (iron [2]; 300 μmol/kg sc) [%] | efficiency in rodents (%) (iron [2]; 300 μmol/kg sc) | % stool (of iron excreted), monkeys (iron [3]) [%] | % urine (of iron excreted), monkeys (iron [3]) [%] | efficiency in monkeys (%) (iron [3]) | % bile (of iron excreted), rodents (iron [4]; 150 μmol/kg po, n = 3) [%] | % urine (of iron excreted), rodents (iron [4]; 150 μmol/kg po, n = 3) [%] | efficiency in rodents (%) (iron [4]; 150 μmol/kg po, n = 3) | % bile (of iron excreted), rodents (iron [4]; 150 μmol/kg sc, n = 6) [%] | % urine (of iron excreted), rodents (iron [4]; 150 μmol/kg sc, n = 6) [%] | efficiency in rodents (%) (iron [4]; 150 μmol/kg sc, n = 6)
O=C(O)[C@H]1CSC(c2ccc(O)cc2O)=N1 [4′-(HO)-DADMDFT, 4′-hydroxydesazadesmethyldesferrithiocin] | −102 × 10^3 OD units/μM | 100 | 0 | 2.9±2.8 | 90 | 10 | 2.1±0.9 | 75 | 25 | 5.3±1.7% and 5.3 ± 1.7^g % |  |  |  |  |  | 
CC(=O)N(O)CCCCCNC(=O)CCC(=O)N(O)CCCCCNC(=O)CCC(=O)N(O)CCCCCN [DFO, Desferrioxamine B, reference compound] |  |  |  |  |  |  |  |  |  |  | 87 | 13 | 1.1 ± 0.6^c % | 75 | 25 | 2.8 ± 0.7
